# Measured values from article PMC10967822, “Antimicrobial Indole-3-Carboxamido-Polyamine Conjugates Target Bacterial Membranes and Are Antibiotic Potentiators” (Biomolecules, 2024).
# Tested on: MRSA ATCC 43300
# Test: MIC, broth microdilution (CO-ADD), MRSA
# Format: cell-based, methicillin-resistant S. aureus
# Details: Staphylococcus aureus; MRSA ATCC 43300; top dose 32 µg/mL; read-out: MIC MRSA
row,SMILES,MIC [µM]
1,Cc1ccc2[nH]cc(C(=O)NCCCNCCCCCCCCCCNCCCNC(=O)c3c[nH]c4ccc(C)cc34)c2c1 [Compound 15e],≤ 0.3
2,Cc1ccc2[nH]cc(C(=O)NCCCNCCCCCCCCCCCCNCCCNC(=O)c3c[nH]c4ccc(C)cc34)c2c1.O=C(O)C(F)(F)F.O=C(O)C(F)(F)F [Compound 15f],≤ 0.29
3,O=C(NCCCNCCCCCCCNCCCNC(=O)c1c[nH]c2c(F)cccc12)c1c[nH]c2c(F)cccc12 [Compound 16c],≤ 0.31
4,O=C(NCCCNCCCCCCCCNCCCNC(=O)c1c[nH]c2c(F)cccc12)c1c[nH]c2c(F)cccc12 [Compound 16d],9.89

# Tested on: C. neoformans ATCC 208821
# Test: Antifungal MIC (CO-ADD), C. neoformans
# Format: cell-based
# Details: Cryptococcus neoformans, ATCC208821, top dose 32 µg/mL
# Procedure: For the antifungal assay, fungi strains were cultured for 3 days on YPD agar at 30 °C. A yeast suspension of 1 × 10^6 to 5 × 10^6 CFU/mL was prepared from five colonies. These stock suspensions were diluted with a yeast nitrogen base (YNB) (Becton Dickinson, 233520, New South Wales, Australia) broth to a final concentration of 2.5 × 10^3 CFU/mL. […] The plates were covered and incubated at 35 °C for 36 h without shaking. C. albicans MICs were determined by measuring the absorbance at OD530. For C. neoformans, resazurin was added at a 0.006% final concentration to each well and incubated for a further 3 h before the MICs were determined by measuring the absorbance at OD570–600. […] Fluconazole was used as a positive fungal inhibitor standard for C. albicans and C. neoformans. […] The quality control (QC) of the assays was determined by the antimicrobial controls and the Z′-factor (using positive and negative controls).
row,SMILES,MIC [µM]
1,Cc1ccc2[nH]cc(C(=O)NCCCNCCCCCCCCCCNCCCNC(=O)c3c[nH]c4ccc(C)cc34)c2c1 [Compound 15e],≤ 0.3
2,Cc1ccc2[nH]cc(C(=O)NCCCNCCCCCCCCCCCCNCCCNC(=O)c3c[nH]c4ccc(C)cc34)c2c1.O=C(O)C(F)(F)F.O=C(O)C(F)(F)F [Compound 15f],≤ 0.29
3,O=C(NCCCNCCCCCCCNCCCNC(=O)c1c[nH]c2c(F)cccc12)c1c[nH]c2c(F)cccc12 [Compound 16c],≤ 0.31
4,O=C(NCCCNCCCCCCCCNCCCNC(=O)c1c[nH]c2c(F)cccc12)c1c[nH]c2c(F)cccc12 [Compound 16d],≤ 0.31

# Tested on: C. albicans ATCC 90028
# Test: Antifungal MIC (CO-ADD), C. albicans
# Format: cell-based
# Details: Candida albicans, ATCC90028, top dose 32 µg/mL
# Method in brief: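 MIC for C. neoformans determined by OD570–600 following a further 3 h with resazurin (0.006% final), whereas C. albicans was read directly at OD530. Both grown static in YNB broth at 2.5 × 10^3 CFU/mL final inoculum, 35 °C for 36 h, from colonies cultured on YPD agar 3 days at 30 °C.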
row,SMILES,MIC [µM]
1,Cc1ccc2[nH]cc(C(=O)NCCCNCCCCCCCCCCNCCCNC(=O)c3c[nH]c4ccc(C)cc34)c2c1 [Compound 15e],≤ 0.3
2,Cc1ccc2[nH]cc(C(=O)NCCCNCCCCCCCCCCCCNCCCNC(=O)c3c[nH]c4ccc(C)cc34)c2c1.O=C(O)C(F)(F)F.O=C(O)C(F)(F)F [Compound 15f],≤ 0.29
3,O=C(NCCCNCCCCCCCNCCCNC(=O)c1c[nH]c2c(F)cccc12)c1c[nH]c2c(F)cccc12 [Compound 16c],> 40
4,O=C(NCCCNCCCCCCCCNCCCNC(=O)c1c[nH]c2c(F)cccc12)c1c[nH]c2c(F)cccc12 [Compound 16d],> 40

# Tested on: E. coli ATCC 25922
# Test: MIC, broth dilution, E. coli
# Format: cell-based, Escherichia coli
# Details: Escherichia coli, ATCC25922; E. coli ATCC 25922, 18 h
row,SMILES,MIC [µM]
1,Cc1ccc2[nH]cc(C(=O)NCCCNCCCCCCCCCCNCCCNC(=O)c3c[nH]c4ccc(C)cc34)c2c1 [Compound 15e],30.2
2,Cc1ccc2[nH]cc(C(=O)NCCCNCCCCCCCCCCCCNCCCNC(=O)c3c[nH]c4ccc(C)cc34)c2c1.O=C(O)C(F)(F)F.O=C(O)C(F)(F)F [Compound 15f],29.2
3,O=C(NCCCNCCCCCCCNCCCNC(=O)c1c[nH]c2c(F)cccc12)c1c[nH]c2c(F)cccc12 [Compound 16c],> 251
4,O=C(NCCCNCCCCCCCCNCCCNC(=O)c1c[nH]c2c(F)cccc12)c1c[nH]c2c(F)cccc12 [Compound 16d],247

# Tested on: P. aeruginosa ATCC 27853
# Test: Doxycycline potentiation against P. aeruginosa
# Format: cell-based, Pseudomonas aeruginosa
# Details: doxycycline at 2 µg/mL (4.5 µM), P. aeruginosa ATCC 27853
# Source text: (§1) These measurements were independently repeated in triplicate.
row,SMILES,Dox/Pa fold-change (intrinsic MIC / combination MIC) [fold]
1,Cc1ccc2[nH]cc(C(=O)NCCCNCCCCCCCCCCNCCCNC(=O)c3c[nH]c4ccc(C)cc34)c2c1 [Compound 15e],4
2,Cc1ccc2[nH]cc(C(=O)NCCCNCCCCCCCCCCCCNCCCNC(=O)c3c[nH]c4ccc(C)cc34)c2c1.O=C(O)C(F)(F)F.O=C(O)C(F)(F)F [Compound 15f],0.5
3,O=C(NCCCNCCCCCCCNCCCNC(=O)c1c[nH]c2c(F)cccc12)c1c[nH]c2c(F)cccc12 [Compound 16c],> 4
4,O=C(NCCCNCCCCCCCCNCCCNC(=O)c1c[nH]c2c(F)cccc12)c1c[nH]c2c(F)cccc12 [Compound 16d],> 8

# Same assay, conditions: doxycycline at 2 µg/mL (4.5 µM), P. aeruginosa ATCC 27853, mean n = 3
row,SMILES,Dox/Pa: concentration required to restore doxycycline activity (combination MIC) [µM]
1,Cc1ccc2[nH]cc(C(=O)NCCCNCCCCCCCCCCNCCCNC(=O)c3c[nH]c4ccc(C)cc34)c2c1 [Compound 15e],15.1
2,Cc1ccc2[nH]cc(C(=O)NCCCNCCCCCCCCCCCCNCCCNC(=O)c3c[nH]c4ccc(C)cc34)c2c1.O=C(O)C(F)(F)F.O=C(O)C(F)(F)F [Compound 15f],117
3,O=C(NCCCNCCCCCCCNCCCNC(=O)c1c[nH]c2c(F)cccc12)c1c[nH]c2c(F)cccc12 [Compound 16c],62.9
4,O=C(NCCCNCCCCCCCCNCCCNC(=O)c1c[nH]c2c(F)cccc12)c1c[nH]c2c(F)cccc12 [Compound 16d],30.9

# Tested on: human red blood cells
# Test: Hemolytic assay
# Format: cell-based
# Details: 10% hemolytic activity, mean n = 2
# Method in brief: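 Compounds were applied to saline-washed human red blood cells at 0.5 × 10^8 cells/mL, 37 °C, 1 h. Lysis was measured by supernatant absorbance at 405 nm, and concentrations giving 10% and 50% haemolysis were obtained by variable-slope curve fitting.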
row,SMILES,Hemolysis HC10 [µM]
1,Cc1ccc2[nH]cc(C(=O)NCCCNCCCCCCCCCCNCCCNC(=O)c3c[nH]c4ccc(C)cc34)c2c1 [Compound 15e],>39
2,Cc1ccc2[nH]cc(C(=O)NCCCNCCCCCCCCCCCCNCCCNC(=O)c3c[nH]c4ccc(C)cc34)c2c1.O=C(O)C(F)(F)F.O=C(O)C(F)(F)F [Compound 15f],>37
3,O=C(NCCCNCCCCCCCNCCCNC(=O)c1c[nH]c2c(F)cccc12)c1c[nH]c2c(F)cccc12 [Compound 16c],>40
4,O=C(NCCCNCCCCCCCCNCCCNC(=O)c1c[nH]c2c(F)cccc12)c1c[nH]c2c(F)cccc12 [Compound 16d],>40

# Tested on: not listed separately
# Test: Cytotoxicity assay (resazurin)
# Format: cell-based
# Details: human, HEK293 cells, mean n = 2
row,SMILES,IC50 at 20 h [µM]
1,Cc1ccc2[nH]cc(C(=O)NCCCNCCCCCCCCCCNCCCNC(=O)c3c[nH]c4ccc(C)cc34)c2c1 [Compound 15e],> 39
2,Cc1ccc2[nH]cc(C(=O)NCCCNCCCCCCCCCCCCNCCCNC(=O)c3c[nH]c4ccc(C)cc34)c2c1.O=C(O)C(F)(F)F.O=C(O)C(F)(F)F [Compound 15f],0.55
3,O=C(NCCCNCCCCCCCNCCCNC(=O)c1c[nH]c2c(F)cccc12)c1c[nH]c2c(F)cccc12 [Compound 16c],> 40
4,O=C(NCCCNCCCCCCCCNCCCNC(=O)c1c[nH]c2c(F)cccc12)c1c[nH]c2c(F)cccc12 [Compound 16d],> 40

# Tested on: A. baumannii ATCC 19606
# Test: MIC, broth microdilution (CO-ADD), A. baumannii
# Format: cell-based, Acinetobacter baumannii
# Details: Acinetobacter baumannii, ATCC19606, top dose 32 µg/mL
row,SMILES,MIC [µM]
1,Cc1ccc2[nH]cc(C(=O)NCCCNCCCCCCCCCCNCCCNC(=O)c3c[nH]c4ccc(C)cc34)c2c1 [Compound 15e],19.3
2,Cc1ccc2[nH]cc(C(=O)NCCCNCCCCCCCCCCCCNCCCNC(=O)c3c[nH]c4ccc(C)cc34)c2c1.O=C(O)C(F)(F)F.O=C(O)C(F)(F)F [Compound 15f],≤ 0.29
3,O=C(NCCCNCCCCCCCNCCCNC(=O)c1c[nH]c2c(F)cccc12)c1c[nH]c2c(F)cccc12 [Compound 16c],> 40
4,O=C(NCCCNCCCCCCCCNCCCNC(=O)c1c[nH]c2c(F)cccc12)c1c[nH]c2c(F)cccc12 [Compound 16d],> 40

# Tested on: S. aureus ATCC 25923
# Test: MIC, broth dilution, S. aureus
# Format: cell-based, Staphylococcus aureus
# Details: Staphylococcus aureus, ATCC25923; S. aureus ATCC 25923, 18 h; read-out: MIC Sa
row,SMILES,MIC [µM]
1,Cc1ccc2[nH]cc(C(=O)NCCCNCCCCCCCCCCNCCCNC(=O)c3c[nH]c4ccc(C)cc34)c2c1 [Compound 15e],3.77
2,Cc1ccc2[nH]cc(C(=O)NCCCNCCCCCCCCCCCCNCCCNC(=O)c3c[nH]c4ccc(C)cc34)c2c1.O=C(O)C(F)(F)F.O=C(O)C(F)(F)F [Compound 15f],3.65
3,O=C(NCCCNCCCCCCCNCCCNC(=O)c1c[nH]c2c(F)cccc12)c1c[nH]c2c(F)cccc12 [Compound 16c],> 251
4,O=C(NCCCNCCCCCCCCNCCCNC(=O)c1c[nH]c2c(F)cccc12)c1c[nH]c2c(F)cccc12 [Compound 16d],247

# Tested on: E. coli ATCC 25922
# Test: Erythromycin potentiation against E. coli
# Format: cell-based, Escherichia coli
# Details: erythromycin at 2 µg/mL (2.7 µM), E. coli
# Source text: as §1
row,SMILES,Erythro/Ec fold-change (intrinsic MIC / combination MIC) [fold]
1,Cc1ccc2[nH]cc(C(=O)NCCCNCCCCCCCCCCNCCCNC(=O)c3c[nH]c4ccc(C)cc34)c2c1 [Compound 15e],4
2,Cc1ccc2[nH]cc(C(=O)NCCCNCCCCCCCCCCCCNCCCNC(=O)c3c[nH]c4ccc(C)cc34)c2c1.O=C(O)C(F)(F)F.O=C(O)C(F)(F)F [Compound 15f],1
3,O=C(NCCCNCCCCCCCNCCCNC(=O)c1c[nH]c2c(F)cccc12)c1c[nH]c2c(F)cccc12 [Compound 16c],1
4,O=C(NCCCNCCCCCCCCNCCCNC(=O)c1c[nH]c2c(F)cccc12)c1c[nH]c2c(F)cccc12 [Compound 16d],1

# Same assay, conditions: erythromycin at 2 µg/mL (2.7 µM), mean n = 3
row,SMILES,Erythro/Ec: concentration required to restore erythromycin activity (combination MIC) [µM]
1,Cc1ccc2[nH]cc(C(=O)NCCCNCCCCCCCCCCNCCCNC(=O)c3c[nH]c4ccc(C)cc34)c2c1 [Compound 15e],7.54
2,Cc1ccc2[nH]cc(C(=O)NCCCNCCCCCCCCCCCCNCCCNC(=O)c3c[nH]c4ccc(C)cc34)c2c1.O=C(O)C(F)(F)F.O=C(O)C(F)(F)F [Compound 15f],29.2
3,O=C(NCCCNCCCCCCCNCCCNC(=O)c1c[nH]c2c(F)cccc12)c1c[nH]c2c(F)cccc12 [Compound 16c],252
4,O=C(NCCCNCCCCCCCCNCCCNC(=O)c1c[nH]c2c(F)cccc12)c1c[nH]c2c(F)cccc12 [Compound 16d],247

# Tested on: K. pneumoniae ATCC 700603
# Test: MIC, broth microdilution (CO-ADD), K. pneumoniae
# Details: top dose 32 µg/mL
row,SMILES,MIC Kp [µM]
1,Cc1ccc2[nH]cc(C(=O)NCCCNCCCCCCCCCCNCCCNC(=O)c3c[nH]c4ccc(C)cc34)c2c1 [Compound 15e],>39
2,Cc1ccc2[nH]cc(C(=O)NCCCNCCCCCCCCCCCCNCCCNC(=O)c3c[nH]c4ccc(C)cc34)c2c1.O=C(O)C(F)(F)F.O=C(O)C(F)(F)F [Compound 15f],>37.3
3,O=C(NCCCNCCCCCCCNCCCNC(=O)c1c[nH]c2c(F)cccc12)c1c[nH]c2c(F)cccc12 [Compound 16c],>40
4,O=C(NCCCNCCCCCCCCNCCCNC(=O)c1c[nH]c2c(F)cccc12)c1c[nH]c2c(F)cccc12 [Compound 16d],>40

# Tested on: P. aeruginosa ATCC 27853
# Test: MIC, broth dilution, P. aeruginosa
# Format: cell-based, Pseudomonas aeruginosa
# Details: Pseudomonas aeruginosa, ATCC27853; P. aeruginosa ATCC 27853, 18 h; read-out: MIC Pa
row,SMILES,MIC [µM]
1,Cc1ccc2[nH]cc(C(=O)NCCCNCCCCCCCCCCNCCCNC(=O)c3c[nH]c4ccc(C)cc34)c2c1 [Compound 15e],60.3
2,Cc1ccc2[nH]cc(C(=O)NCCCNCCCCCCCCCCCCNCCCNC(=O)c3c[nH]c4ccc(C)cc34)c2c1.O=C(O)C(F)(F)F.O=C(O)C(F)(F)F [Compound 15f],58.3
3,O=C(NCCCNCCCCCCCNCCCNC(=O)c1c[nH]c2c(F)cccc12)c1c[nH]c2c(F)cccc12 [Compound 16c],251
4,O=C(NCCCNCCCCCCCCNCCCNC(=O)c1c[nH]c2c(F)cccc12)c1c[nH]c2c(F)cccc12 [Compound 16d],247
